Values of other authors as cited in patent publication US20100297195A1, “CONTROLLED RELEASE LAMOTRIGINE FORMULATIONS” (RANBAXY LABORATORIES LIMITED, priority 2009, published 2010).

Details: oral administration

Compound: Nc1nnc(-c2cccc(Cl)c2Cl)c(N)n1 [Lamotrigine, 3,5-diamino-6-(2,3-dichlorophenyl)-1,2,4-triazine]
- absolute bioavailability: 98%
- effect of food on bioavailability: not affected by food
